Experimental findings from US20120115724A1, “METHOD OF CONTROLLING UNDESIRED VEGETATION” (SYNGENTA CROP PROTECTION LLC, priority 2009, published 2012) are described below.

What all share (format): in vivo
Assay [1] deals with Alopecurus myosuroides (ALOMY). In words: Pre-emergence biological efficacy (Example 13). Conditions: Alopecurus myosuroides, 312 h; pre-emergence, 1,000 g/ha, after 13 days; read-out: Percentage damage ALOMY. The method in brief:
(§1)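 Pre-emergence spray, 250 or 1000 g/ha, applied one day post-sowing; formulation acetone/water 50:50 + 0.5% Tween 20, diluted aqueous. Glasshouse 24/16 °C, 14 h light, 65% RH, watered twice daily. Scored day 13, 0–100% damage.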

The subject of assay [2] is Amaranthus retroflexus (AMARE). In words: Pre-emergence biological efficacy (Example 13). As to conditions: Amaranthus retroflexus, 312 h; pre-emergence, 1,000 g/ha, after 13 days; read-out: Percentage damage AMARE. The method in brief:
as §1

The test system of assay [3] is Echinochloa crus-galli (ECHCG). The experiment in a line: Pre-emergence biological efficacy (Example 13). As to conditions: Echinochloa crus-galli, 312 h; pre-emergence, 1,000 g/ha, after 13 days; read-out: Percentage damage ECHCG. The method in brief: as §1
Assay [4] concerns Ipomea hederaceae (IPOHE). The experiment in a line: Pre-emergence biological efficacy (Example 13). Conditions: Ipomoea hederacea, 312 h; pre-emergence, 1,000 g/ha, after 13 days; read-out: Percentage damage IPOHE. The method in brief: as §1
Assay [5] has as its system Setaria faberi (SETFA). In words: Pre-emergence biological efficacy (Example 13). Conditions: Setaria faberi, 312 h; pre-emergence, 1,000 g/ha, after 13 days; read-out: Percentage damage SETFA. The method in brief: as §1
The subject of assay [6] is Solanum nigrum (SOLNI). In words: Pre-emergence biological efficacy (Example 13). As to conditions: Solanum nigrum, 312 h; pre-emergence, 1,000 g/ha, after 13 days; read-out: Percentage damage SOLNI. Put shortly:
as §1

The subject of assay [7] is Alopecurus myosuroides (ALOMY). In words: Post-emergence biological efficacy (Example 14). Conditions: Alopecurus myosuroides, 312 h; post-emergence, 1,000 g/ha, after 13 days; read-out: Percentage damage ALOMY. The method in brief:
(§2)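 Visual damage rating, 0 (none) to 100 (total), taken 13 days after spraying. Plants sown in standard soil, grown 8 days at 24/16 °C, 14 h light, 65% RH, then treated at 250 or 1000 g/ha from acetone/water 50:50 with 0.5% Tween 20; watered twice daily.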

In assay [8] the test system is Amaranthus retroflexus (AMARE). In words: Post-emergence biological efficacy (Example 14). Conditions: Amaranthus retroflexus, 312 h; post-emergence, 1,000 g/ha, after 13 days; read-out: Percentage damage AMARE. The method in brief: as §2
The subject of assay [9] is Echinochloa crus-galli (ECHCG). The experiment in a line: Post-emergence biological efficacy (Example 14). As to conditions: Echinochloa crus-galli, 312 h; post-emergence, 1,000 g/ha, after 13 days; read-out: Percentage damage ECHCG. Put shortly:
as §2

For assay [10], the system named is Ipomea hederaceae (IPOHE). The experiment in a line: Post-emergence biological efficacy (Example 14). As to conditions: Ipomoea hederacea, 312 h; post-emergence, 1,000 g/ha, after 13 days; read-out: Percentage damage IPOHE. Put shortly:
as §2

For assay [11], the system named is Setaria faberi (SETFA). The experiment in a line: Post-emergence biological efficacy (Example 14). As to conditions: Setaria faberi, 312 h; post-emergence, 1,000 g/ha, after 13 days; read-out: Percentage damage SETFA. Put shortly: as §2
The subject of assay [12] is Solanum nigrum (SOLNI). In words: Post-emergence biological efficacy (Example 14). As to conditions: Solanum nigrum, 312 h; post-emergence, 1,000 g/ha, after 13 days; read-out: Percentage damage SOLNI. Put shortly: as §2
Assay [13] deals with ABUTH Abutilon theophrasti. In words: Post-emergence crop and weed test (Example 15). As to conditions: 360 h, after 15 days, read-out: Percentage damage ABUTH. Put shortly:
(§3)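 Plants grown 14 days in a glasshouse (22/16 °C, 16 h light, 65% humidity) were sprayed post-emergence with active ingredient from a solvent/emulsifier stock diluted in water with 0.2% X-77. Damage was scored 15 days later on a 0–100 scale, where 100 is total damage.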

The subject of assay [14] is AMARE Amaranthus retroflexus. The experiment in a line: Post-emergence crop and weed test (Example 15). As to conditions: 360 h, after 15 days, read-out: Percentage damage AMARE. The method in brief:
as §3

The test system of assay [15] is CHEAL Chenopodium album. In words: Post-emergence crop and weed test (Example 15). Conditions: 360 h, after 15 days, read-out: Percentage damage CHEAL. Put shortly:
as §3

The subject of assay [16] is EPHHL Euphorbia heterophylla. The experiment in a line: Post-emergence crop and weed test (Example 15). Conditions: 360 h, after 15 days, read-out: Percentage damage EPHHL. Put shortly:
as §3

For assay [17], the system named is GALAP Galium aparine. The experiment in a line: Post-emergence crop and weed test (Example 15). As to conditions: 360 h, after 15 days, read-out: Percentage damage GALAP. The method in brief:
as §3

Assay [18] has as its system GLXMA Soybean. In words: Post-emergence crop and weed test (Example 15). Conditions: Glycine max, 360 h, after 15 days, read-out: Percentage damage GLXMA. Put shortly: as §3
Assay [19] deals with IPOHE Ipomoea hederacea. The experiment in a line: Post-emergence crop and weed test (Example 15). Conditions: 360 h, after 15 days, read-out: Percentage damage IPOHE. Put shortly:
as §3

Assay [20] concerns KCHSC Kochia scoparia. The experiment in a line: Post-emergence crop and weed test (Example 15). Conditions: Bassia scoparia, 360 h, after 15 days, read-out: Percentage damage KCHSC. Put shortly:
as §3

Assay [21] has as its system POLCO Polygonum convolvulus. In words: Post-emergence crop and weed test (Example 15). As to conditions: Fallopia convolvulus, 360 h, after 15 days, read-out: Percentage damage POLCO. The method in brief:
as §3

The test system of assay [22] is SIDSP Sida spinosa. In words: Post-emergence crop and weed test (Example 15). As to conditions: 360 h, after 15 days, read-out: Percentage damage SIDSP. The method in brief: as §3
In assay [23] the test system is SINAR Sinapis arvensis. The experiment in a line: Post-emergence crop and weed test (Example 15). As to conditions: Mutarda arvensis, 360 h, after 15 days, read-out: Percentage damage SINAR. Put shortly:
as §3

Assay [24] concerns VERPE Veronica persica. In words: Post-emergence crop and weed test (Example 15). As to conditions: 360 h, after 15 days, read-out: Percentage damage VERPE. Put shortly: as §3
In assay [25] the test system is XANST Xanthium strumarium. The experiment in a line: Post-emergence crop and weed test (Example 15). As to conditions: 360 h, after 15 days, read-out: Percentage damage XANST. Put shortly:
as §3

On to `C=Cc1c(NCc2ccco2)nc(-c2ccc(Cl)cc2)nc1C(=O)OC` [Compound 7, 2-(4-Chlorophenyl)-5-ethenyl-4-(furan-2-ylmethylamino)-6-methoxycarbonyl-pyrimi-dine], for which the pest or weed control at 1000 g/ha in [1] came out at 50%; in [2], 100%; in assay [3], 20%; in assay [4] it was 40%; in assay [5], 10%; in [6] it was 20%. Moreover, the pest or weed control at 1000 g/ha in [7] was 30%; in assay [8], 100%; in assay [9], 40%; in assay [10] it was 80%; in [11] it was 0%; in assay [12] it was 90%. For the same molecule, the pest or weed control at 30 g/ha is 70% in [13] (30 g/ha); 50% in assay [14] (30 g/ha); 20% in assay [15] (30 g/ha); 0% in assay [16] (30 g/ha); 60% in assay [17] (30 g/ha); 70% in [19] (30 g/ha). Also, the pest or weed control at 30 g/ha in assay [20] (30 g/ha) was found to be 40%; in assay [21] (30 g/ha), 40%; in [22] (30 g/ha), 0%; in assay [23] (30 g/ha), 60%; in [24] (30 g/ha) it was 80%; in [25] (30 g/ha), 50%. Further, the plant injury at 30 g/ha in [18] (30 g/ha) came out at 0%.

On to `C=Cc1c(NCc2ccco2)nc(C2CC2)nc1C(=O)OC` [Ref. Ex. F, 2-Cyclopropyl-5-ethenyl-4-(furan-2-ylmethylamino)-6-methoxycarbonyl-pyrimidine, reference compound], for which the pest or weed control at 125 g/ha was found to be 60% in assay [13] (125 g/ha); 40% in assay [14] (125 g/ha); 80% in assay [15] (125 g/ha); 80% in [16] (125 g/ha); 80% in [17] (125 g/ha); 70% in [19] (125 g/ha). The pest or weed control at 125 g/ha in assay [20] (125 g/ha) is 30%; in assay [21] (125 g/ha) it was 60%; in assay [22] (125 g/ha), 60%; in assay [23] (125 g/ha), 80%; in [24] (125 g/ha) it was 0%; in assay [25] (125 g/ha) it was 60%. In addition, the plant injury at 125 g/ha in [18] (125 g/ha) worked out at 80%.
